# Patent US8034329B2, “Repair and regeneration of renal tissue using human umbilical cord tissue-derived cells” (Advanced Technologies And Regenerative Medicine, LLC, priority 2007, dated 2011)
# Test system: HLA-DR, DP, DQ expression of hUTC
# Test: Inhibition of IFN-gamma-induced expression of HLA-DR, DP, DQ on hUTC, flow cytometry
# Type: cell-based, human
# Protocol: Culture-expanded human umbilical cord tissue-derived cells (022803 P4) were seeded into 6-well tissue culture plates and cultured in Dulbecco's Modified Eagles Media (DMEM)-low glucose, 15% fetal bovine serum (FBS), penicillin/streptomycin (P/S), Betamercaptoethanol (BME) to approximately 70% confluence. The cells were then treated with media containing 10 μM of respective HMG-CoA reductase inhibitor (Simvastatic acid (Alexis Biochemicals, Lausen, Switzerland) formulated as 10 mM stock reagents in DMSO) or DMSO vehicle—0.1% (Sigma, St. Louis, Mo.) and incubated overnight. The media was removed by aspiration and replaced with media containing 500 U/ml rhIFN-gamma (BD Pharmingen, Franklin Lakes, N.J.) and […] of respective HMG-CoA reductase inhibitor and incubated for 3 days. On day three, cells were harvested with trypsin.
# Harvested cells were washed once with PBS and re-suspended in 100 μl of 3% FBS in PBS with 20 μl FITC-labeled HLA-DR,DP,DQ (BD Biosciences, Franklin Lakes, N.J.) or FITC-labeled IgG antibody (BD Biosciences, Franklin Lakes, N.J.) and incubated for one hour. Cells were washed once in PBS and resuspended in 500 μl PBS and analyzed on a FACSCalibur flow cytometer (BS Biosciences, Franklin Lakes, N.J.).
structure (smiles),measurement,setting,value
CCC(C)(C)C(=O)O[C@H]1C[C@@H](C)C=C2C=C[C@H](C)[C@H](CC[C@@H]3C[C@@H](O)CC(=O)O3)[C@H]21 [Simvastatin],"HLA-DR, DP, DQ expression, FITC fluorescence intensity, IFN-gamma-treated, mean","10 μM inhibitor overnight, then 500 U/ml rhIFN-gamma plus inhibitor 3 days",5.57
same,"HLA-DR, DP, DQ expression, FITC fluorescence intensity, No cytokine treatment, Mean","10 μM inhibitor, no IFN-gamma",5.66
same,"FITC fluorescence intensity, IgG control, mean","10 μM inhibitor, FITC-labeled IgG antibody",4.4
